Laboratory results published in patent publication US20210284691A1, “CBX8 CHROMDOMAIN INHIBITORS AND THE USES THEREOF” (Purdue Research Foundation, priority 2019, published 2021).
Read-outs that look alike come from different tables or passages of the source. Each block holds one molecule with its values, some of them ahead of it. Square brackets hold non-standard residues; d marks the D form. Peptide text beside a SMILES is read from it. * marks the point of attachment. ξ: configuration not given here. Isoxazole3carbonyl(5-Me) = Cc1cc(C(=O)*)no1; Tyr(3-Cl) = N[C@@H](Cc1ccc(O)c(Cl)c1)C(=O)O; Benzoyl(4-OPh) = O=C(c1ccc(Oc2ccccc2)cc1)*; Benzoyl(4-Ph) = O=C(c1ccc(-c2ccccc2)cc1)*; Lys(Me3) = C[N+](C)(C)CCCC[C@H](N)C(=O)O; Gly(3-thienyl) = N[C@H](C(=O)O)c1ccsc1; Lys(Et2) = CCN(CC)CCCC[C@H](N)C(=O)O; Gly(cPent) = N[C@H](C(=O)O)C1CCCC1; Gly(cPr) = N[C@H](C(=O)O)C1CC1; ξIle = CC[C@H](C)C(N)C(=O)O; NH(propargyl) = C#CCN*

What was measured:
CBX8 ChD [1] = target: T1, CBX8 ChD (Homo sapiens, UniProt Q9HC52); assay: Direct fluorescence polarization (FP) binding assay
T1 construct: CBX chromodomain constructs; host or cells: E. coli BL21 CodonPlus RIL
T1 sequence (Q9HC52 11-69 limits assumed): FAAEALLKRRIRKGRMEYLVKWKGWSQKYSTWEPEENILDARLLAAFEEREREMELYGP
Method: (§1) Bacterial growth was completed at 37° C. in LB media to OD600=2.0, followed by reducing the temperature to 16° C. over 30-60 min and induced with 1 mM IPTG for 16 h. Cells were collected by centrifugation at 6000 rpm for 20 min and resuspended in ChD binding buffer (20 mM Tris, pH 8, 150 mM NaCl, 0.01% Tween-20, 20 mM imidazole) with 1.0 mM PMSF. Bacteria pellets were stored at −80° C. until needed. Pellets were thawed on ice for 10 min in ChD binding buffer, and shaked at 4° C. supplemented with 100 μg/mL lysozyme, 1 mg/mL CHAPS and 1 mM PMSF, for 30 min. Cells were subsequently lysed by sonication (15 W, 30 s on, followed by 30 s off, twice, followed by 20 W for 1 min). The solubilized fraction was collected by centrifugation at 15000 rpm for 40 min at 4° C. Meanwhile, Ni-NTA Agarose resin (QIAGEN, Venlo, Netherlands) was washed with H2O and equilibrated with ChD binding buffer. The soluble fraction was incubated with the prewashed Ni-NTA agarose resin at 4° C. for 2 h. The resin was then washed 3× with ChD purification buffer (20 mM Tris, pH 8, 150 mM NaCl, 0.01% Tween-20, 1 mM PMSF). Proteins were eluted by the addition of 0.5 M imidazole to ChD purification buffer. The elution was diluted with 30% glycerol, flash frozen, and stored at −80° C. until needed. Protein purity was assessed by SDS-PAGE and concentration was determined by the Pierce 660 kit (Thermo Scientific).
Direct fluorescence polarization (FP) binding assay of PSL hits against PcG CBX ChDs. FP assays were conducted as above with slight modifications. Alkyne peptides described above were conjugated with a fluorescein group(5-/6-FAM) through copper catalyzed click reaction as previously described. The FAM-labeled peptide was kept constant at 100 nM. The CBX ChD proteins were titrated by 2-fold series dilutions in the assays. The highest protein concentrations, at which FAM-peptide was completely bound, used for each CBX in the direct binding assays depends on the binding affinity of the peptides. Assays were performed for each peptide in four replicates.

CBX7 ChD = target: T2, CBX7 ChD (Homo sapiens, UniProt O95931); assay: Competitive fluorescence polarization (FP) assay; format: binding; conditions: average of quadruplicates ± s.d.
T2 construct: CBX chromodomain constructs; host or cells: E. coli BL21 CodonPlus RIL
T2 sequence (O95931 11-69 limits assumed): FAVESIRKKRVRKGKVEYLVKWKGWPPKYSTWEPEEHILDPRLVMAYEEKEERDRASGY
Method: as §1, with “CBX chromodomain constructs (addgene plasmid #25158 (CBX2), #25237 (CBX4), #25296 (CBX6), #25241 (CBX7) and #62514 (CBX8, provided by Cheryl Arrowsmith), Kaustov et al.) were transformed into chemically competent BL21 CodonPlus RIL E. coli cells (Stratagene, La Jolla, Calif.) as N-terminal His6-tagged proteins. Bacterial” for “Bacterial”
(§2) Competitive Fluorescence polarization (FP) assay of PSL hits against CBX6 ChD, CBX7 ChD and CBX8 ChD. FP was measured by titration of CBX ChDs to a FITC-labelled probe as previously reported (Simhadri et al.). Binding and competition FP assays were performed in black 384-well plates with optical bottoms. The protein concentrations used were selected based on the reported relative affinity of the CBX ChD protein for the FITC probes. The FITC-labeled probe was kept constant at 100 nM with 1 μM CBX6, 0.4 μM CBX7 or 4 μM CBX8 with varying amounts of peptide by 2-fold series dilutions, from 500 μM as highest peptide concentration to 0.488 μM as the lowest. Assays were performed for each peptide in four replicates.

CBX6 ChD = target: T3, CBX6 ChD (Homo sapiens, UniProt O95503); assay: Competitive fluorescence polarization (FP) assay; format: binding; conditions: average of quadruplicates ± s.d.
T3 construct: CBX chromodomain constructs; host or cells: E. coli BL21 CodonPlus RIL
T3 sequence (O95503 11-69 limits assumed): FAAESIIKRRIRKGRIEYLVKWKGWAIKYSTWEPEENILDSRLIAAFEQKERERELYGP
Method: as §1, with “CBX chromodomain constructs (addgene plasmid #25158 (CBX2), #25237 (CBX4), #25296 (CBX6), #25241 (CBX7) and #62514 (CBX8, provided by Cheryl Arrowsmith), Kaustov et al.) were transformed into chemically competent BL21 CodonPlus RIL E. coli cells (Stratagene, La Jolla, Calif.) as N-terminal His6-tagged proteins. Bacterial” for “Bacterial”
as §2

CBX8 ChD [2] = target: T1, CBX8 ChD; assay: Competitive fluorescence polarization (FP) assay; format: binding
Method: as §1, with “CBX chromodomain constructs (addgene plasmid #25158 (CBX2), #25237 (CBX4), #25296 (CBX6), #25241 (CBX7) and #62514 (CBX8, provided by Cheryl Arrowsmith), Kaustov et al.) were transformed into chemically competent BL21 CodonPlus RIL E. coli cells (Stratagene, La Jolla, Calif.) as N-terminal His6-tagged proteins. Bacterial” for “Bacterial”
as §2

[3] = test system: H3K27me3, AR, ENO2, N-Myc, CBX2 protein levels; assay: Western blotting of protein expression in VCaP_NED cells; format: cell-based
From the text: FIG. 12A). Neuroendocrine differentiation (NED) of prostate cancer induced by androgen deprivation. Representative pictures of LNCaP cells treated with normal media or charcoal-stripped serum (CSS) media for 6 days to induce neuroendocrine differentiation (LNCaP_NED). FIG. 12B). Transcriptional fold changes of KLK3/TMPRSS2/ENO2/CHGA were quantified normalized to control gene YWHAZ upon CSS media treatment for 6 or 9 days. FIG. 12C). Western blotting of CBX paralogs in LNCaP and LNCaP_NED cells generated from 14-day CSS treatment. FIG. 12D). Cell proliferation of LNCaP_NED following 5 days incubation with 2 or 10 μM SW2_152F. DMSO was used as negative control. FIG. 12E). LNCaP_NED cells were treated with 10 μM SW2_152F for 24 h-96 h. Cell morphology pictures were captured starting from 24 h. Average cell size were plotted at 24 h or 48 h for both DMSO group and compound treated group. FIG. 12F). LNCaP_NED cells were treated with 10 μM or 50 μM SW2_152F for 48 hours. Transcriptional fold change of genes (KLK3/TMPRSS2/AR/CBX2) were normalized to YWHAZ in LNCaP_NED cells with SW2_152F treatment or DMSO. FIG. 12G). LNCaP cells were treated with DMSO. LNCaP_NED cells were treated with DMSO, 10 μM GSK343 or 10 μM SW2_152F for 48 hours. Whole cell lysates were extracted for western blotting. FIG. 12H). LNCaP_NED cells were treated with DMSO or 10 μM SW2_152F for 4 hours before harvest. Binding of H3K27me3 and CBX2 at specific genomic sites (KLK3/TMPRSS2, e: enhancer, p: promoter) were evaluated using chromatin immunoprecipitation-qPCR. For all experiments in the figure, error bars represent SEM n=3 biological replicates, p-values were calculated using two-tailed Student's t-test, *=p<0.05, **=p<0.01, ***=p<0.001, ****=p<0.0001.
In another androgen-sensitive prostate cancer cell line, VCaP, 6 days of androgen deprivation decreases AR protein expression and increases ENO2, N-Myc, H3K27me3 and CBX2 protein expression (FIG. 12G), similar to published findings (Y. Zhang, et al., 2018). Using this NED cell line (VCaP_NED), we tested how addition of EZH2 inhibitor GSK343 or CBX2 inhibitor SW2_152F affects protein expression changes during NED.

[4] = competitive FP, average of quadruplicates ± s.d., read-out: IC50 (μM) CBX8

SMILES: CC[C@H](C)[C@H](NC(=O)[C@@H](NC(=O)c1ccc(Oc2ccccc2)cc1)C1CCCC1)C(=O)N[C@@H](CCCCN(CC)CC)C(=O)N[C@@H](CO)C(=O)NCc1cn(CCCCNC(=O)c2ccc3c(c2)C2(OC3=O)c3ccc(O)cc3Oc3cc(O)ccc32)nn1 [SW2_110A-FL]
selectivity for CBX8 ChD over CBX7 ChD (CBX8 ChD [1]; from Kd values): 20 fold
selectivity for CBX8 over CBX2 (CBX8 ChD [1]; from Kd values): 5 fold

SMILES: CC[C@H](C)C(NC(=O)[C@@H](NC(=O)c1ccc(Oc2ccccc2)cc1)C1CC1)C(=O)N[C@@H](CCCC[N+](C)(C)C)C(=O)N[C@@H](CO)C(N)=O (stereo partly drawn) [SW2_101F] ({Benzoyl(4-OPh)}-[Gly(cPr)][ξIle][Lys(Me3)]S-NH2)
IC50 (CBX6 ChD): > 100 µM
IC50 (CBX8 ChD [2]; [4]): 4 ± 1.1 µM

SMILES: CC[C@H](C)C(NC(=O)[C@@H](NC(=O)c1ccc(Oc2ccccc2)cc1)C1CCCC1)C(=O)N[C@@H](CCCC[N+](C)(C)C)C(=O)N[C@@H](CO)C(N)=O (stereo partly drawn) [SW2_101B] ({Benzoyl(4-OPh)}-[Gly(cPent)][ξIle][Lys(Me3)]S-NH2)
IC50 (CBX7 ChD): > 100 µM
IC50 (CBX6 ChD): > 100 µM

SMILES: CCCc1cc(C)[nH]c(=O)c1CNC(=O)c1cc(-c2ccnc(N3CCN(C)CC3)c2)cc2c1cnn2C(C)C [GSK343]
CBX2 protein expression [3]: decrease in CBX2 expression
H3K27me3 levels ([3]; 10 μM, 48 hours): reduces H3K27me3 levels
AR, ENO2 and N-Myc expression ([3]; compared to DMSO): increase AR and decrease ENO2 and N-Myc expression

SMILES: C#CCNC(=O)[C@H](CO)NC(=O)[C@H](CCCCN(CC)CC)NC(=O)C(NC(=O)[C@@H](NC(=O)c1ccc(Oc2ccccc2)cc1)C1CCCC1)[C@@H](C)CC (stereo partly drawn) [SW2_110A] ({Benzoyl(4-OPh)}-[Gly(cPent)][ξIle][Lys(Et2)]S-{NH(propargyl)})
inhibition of THP1 proliferation compared to DMSO (THP1 cells; 100 μM, after 12 days of treatment): ~80%
IC50 (THP1 cells; read-out: IC50 for growth inhibition of THP1 cells, 12-day treatment, CellTiter-Glo): 25 ± 1.1 µM
IC50 (μM) CBX7 (CBX7 ChD): ND (Aggreg.)
IC50 (μM) CBX6 (CBX6 ChD): ND (Aggreg.)
IC50 (CBX8 ChD [2]): > 7 µM
Kd (CBX8 ChD [1]): ~0.8 µM
selectivity for CBX8 over all other CBX paralogs in vitro (CBX8 ChD [1]): ≥ 5 fold

SMILES: CC[C@H](C)C(NC(=O)[C@@H](NC(=O)c1ccc(-c2ccccc2)cc1)C1CCCC1)C(=O)N[C@@H](CCCC[N+](C)(C)C)C(=O)N[C@@H](CO)C(N)=O (stereo partly drawn) [SW2_89] ({Benzoyl(4-Ph)}-[Gly(cPent)][ξIle][Lys(Me3)]S-NH2)
IC50 (μM) CBX6 (CBX6 ChD): ND (Aggreg.)

SMILES: CC[C@H](C)C(NC(=O)[C@@H](NC(=O)[C@H](Cc1ccc(O)c(Cl)c1)NC(=O)c1cc(C)on1)C1CC1)C(=O)N[C@@H](CCCC[N+](C)(C)C)C(=O)N[C@@H](CO)C(N)=O (stereo partly drawn) [SW2_90] ({Isoxazole3carbonyl(5-Me)}-[Tyr(3-Cl)][Gly(cPr)][ξIle][Lys(Me3)]S-NH2)
IC50 (CBX7 ChD): 0.82 ± 0.12 µM

The remaining lines, values ahead:

IC50 (μM) CBX7 (CBX7 ChD): ND (Aggreg.)
IC50 (μM) CBX6 (CBX6 ChD): ND (Aggreg.)
IC50 (CBX8 ChD [2]; [4]): > 15 µM
SMILES: C#CCNC(=O)[C@H](CO)NC(=O)[C@H](CCCCN(CC)CC)NC(=O)C(NC(=O)[C@@H](NC(=O)c1ccc(-c2ccccc2)cc1)c1ccsc1)[C@@H](C)CC (stereo partly drawn) [SW2_104B] ({Benzoyl(4-Ph)}-[Gly(3-thienyl)][ξIle][Lys(Et2)]S-{NH(propargyl)})

IC50 (μM) CBX7 (CBX7 ChD): ND (Aggreg.)
IC50 (μM) CBX6 (CBX6 ChD): ND (Aggreg.)
SMILES: C#CCNC(=O)[C@H](CO)NC(=O)[C@H](CCCCN(CC)CC)NC(=O)[C@@H](NC(=O)[C@@H](NC(=O)c1ccc(Oc2ccccc2)cc1)c1ccsc1)[C@@H](C)CC [SW2-110B] ({Benzoyl(4-OPh)}-[Gly(3-thienyl)]I[Lys(Et2)]S-{NH(propargyl)})

IC50 (CBX8 ChD [2]; [4]): 40 ± 8.3 µM
SMILES: CC[C@H](C)C(NC(=O)[C@@H](NC(=O)c1ccc(-c2ccccc2)cc1)C1CC1)C(=O)N[C@@H](CCCC[N+](C)(C)C)C(=O)N[C@@H](CO)C(N)=O (stereo partly drawn) [SW2_101A] ({Benzoyl(4-Ph)}-[Gly(cPr)][ξIle][Lys(Me3)]S-NH2)
